Experimental data taken from patent publication US9730940B2, “Purine inhibitors of human phosphatidylinositol 3-kinase delta” (priority 2012, dated 2017).

The compounds below were run against PI3K-alpha (Homo sapiens (Human), UniProt P42336) (assay: HTRF PI3K biochemical assay, alpha isoform). Settings: ratio PI3K-alpha IC50 value/PI3K-delta IC50 value.
Chain of PI3K-alpha (P42336 whole entry, looked up, canonical isoform): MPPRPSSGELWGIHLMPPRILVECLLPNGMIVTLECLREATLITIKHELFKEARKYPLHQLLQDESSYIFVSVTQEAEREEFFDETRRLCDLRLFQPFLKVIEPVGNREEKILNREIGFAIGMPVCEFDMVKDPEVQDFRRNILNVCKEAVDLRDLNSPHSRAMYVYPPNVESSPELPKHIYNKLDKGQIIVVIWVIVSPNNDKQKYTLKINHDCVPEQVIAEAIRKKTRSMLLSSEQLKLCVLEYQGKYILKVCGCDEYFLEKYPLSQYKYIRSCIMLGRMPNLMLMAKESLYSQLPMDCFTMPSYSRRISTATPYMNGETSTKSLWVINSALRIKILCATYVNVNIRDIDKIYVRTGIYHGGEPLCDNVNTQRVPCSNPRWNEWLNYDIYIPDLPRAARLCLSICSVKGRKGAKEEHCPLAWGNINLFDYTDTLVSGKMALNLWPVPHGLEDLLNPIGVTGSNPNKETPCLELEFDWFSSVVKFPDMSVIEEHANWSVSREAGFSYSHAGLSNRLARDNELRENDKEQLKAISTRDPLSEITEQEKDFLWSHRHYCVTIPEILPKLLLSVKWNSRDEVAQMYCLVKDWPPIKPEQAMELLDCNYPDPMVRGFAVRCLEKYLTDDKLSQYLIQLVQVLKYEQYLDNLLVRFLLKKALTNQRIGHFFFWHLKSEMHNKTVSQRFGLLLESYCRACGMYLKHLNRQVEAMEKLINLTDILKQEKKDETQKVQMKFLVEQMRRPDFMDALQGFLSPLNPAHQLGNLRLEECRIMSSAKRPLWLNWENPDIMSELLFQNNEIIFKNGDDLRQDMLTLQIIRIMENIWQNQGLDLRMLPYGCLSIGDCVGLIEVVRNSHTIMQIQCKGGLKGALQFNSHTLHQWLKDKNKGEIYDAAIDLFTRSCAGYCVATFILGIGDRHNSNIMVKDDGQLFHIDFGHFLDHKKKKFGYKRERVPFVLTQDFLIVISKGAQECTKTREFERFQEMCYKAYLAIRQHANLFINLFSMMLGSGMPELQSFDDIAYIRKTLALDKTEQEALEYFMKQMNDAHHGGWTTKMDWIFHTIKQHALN
Chain of PI3K-alpha (P27986 whole entry partner, looked up, canonical isoform): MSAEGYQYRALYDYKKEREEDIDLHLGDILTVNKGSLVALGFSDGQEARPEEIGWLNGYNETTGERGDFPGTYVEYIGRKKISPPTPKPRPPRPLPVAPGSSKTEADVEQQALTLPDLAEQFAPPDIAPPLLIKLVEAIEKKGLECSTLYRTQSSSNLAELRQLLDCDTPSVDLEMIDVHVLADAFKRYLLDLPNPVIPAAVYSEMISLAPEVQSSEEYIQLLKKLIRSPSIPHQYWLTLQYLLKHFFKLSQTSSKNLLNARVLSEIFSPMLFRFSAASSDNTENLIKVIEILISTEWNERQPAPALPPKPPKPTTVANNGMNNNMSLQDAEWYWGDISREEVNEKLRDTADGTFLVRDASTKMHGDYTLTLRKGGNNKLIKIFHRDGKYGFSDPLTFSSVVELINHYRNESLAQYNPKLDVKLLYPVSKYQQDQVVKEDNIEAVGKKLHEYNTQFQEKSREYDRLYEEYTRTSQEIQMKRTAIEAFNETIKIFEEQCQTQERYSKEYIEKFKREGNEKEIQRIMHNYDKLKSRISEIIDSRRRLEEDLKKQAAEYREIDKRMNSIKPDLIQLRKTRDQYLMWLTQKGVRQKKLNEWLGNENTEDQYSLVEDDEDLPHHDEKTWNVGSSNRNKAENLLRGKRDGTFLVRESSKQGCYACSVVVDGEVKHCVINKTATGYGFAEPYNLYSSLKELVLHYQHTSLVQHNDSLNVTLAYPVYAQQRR

| Structure (SMILES) | Relative Selectivity versus PI3Kalpha |
| --- | --- |
| CCOC(=O)[C@H](C)NC(=O)N1CC[C@H](Oc2ncnc3c2nc(-c2cnn(CC)c2C)n3C)C1 [Compound 5-6, ethyl N-{[(3S)-3-{[8-(1-ethyl-5-methyl-1H-pyrazol-4-yl)-9-methyl-9H-purin-6-yl]oxy}pyrrolidin-1-yl]carbonyl}alaninate] | 5 |
| CCNC(=O)N1CC[C@H](Oc2ncnc3c2nc(-c2cnn(CC)c2C)n3C)C1 [Compound 5-7, (S)-N-ethyl-3-((8-(1-ethyl-5-methyl-1H-pyrazol-4-yl)-9-methyl-9H-purin-6-yl]oxy}pyrrolidine-1-carboxamide] | >10 |
| CCNC(=O)N1CC[C@H](Oc2ncnc3c2nc(-c2cnc(C)nc2)n3CC)C1 [Compound 5-8, (3S)-N-ethyl-3-{[9-ethyl-8-(2-methylpyrimidin-5-yl)-9H-purin-6-yl]oxy}pyrrolidine-1-carboxamide] | >10 |
| CCN(C)C(=O)N1CC[C@H](Oc2ncnc3c2nc(-c2cnc(C)nc2)n3CC)C1 [Compound 5-9, (3S)-N-ethyl-3-{[9-ethyl-8-(2-methylpyrimidin-5-yl)-9H-purin-6-yl]oxy}-N-methylpyrrolidine-1-carboxamide] | >10 |
| CCn1c(-c2cnc(C)nc2)nc2c(O[C@H]3CCN(C(=O)N(C)C4CC4)C3)ncnc21 [Compound 5-10, (3S)-N-cyclopropyl-3-{[9-ethyl-8-(2-methylpyrimidin-5-yl)-9H-purin-6-yl]oxy}-N-methylpyrrolidine-1-carboxamide] | >10 |
| CCn1c(-c2cnc(C)nc2)nc2c(O[C@H]3CCN(C(=O)N4CCC4)C3)ncnc21 [Compound 5-11, 6-{[(3S)-1-(azetidin-1-ylcarbonyl)pyrrolidin-3-yl]oxy}-9-ethyl-8-(2-methylpyrimidin-5-yl)-9H-purine] | >10 |
| CCn1c(-c2cnc(C)nc2)nc2c(OC3CCN(C(=O)N(C)c4ccccc4)CC3)ncnc21 [Compound 5-12, 4-{[9-ethyl-8-(2-methylpyrimidin-5-yl)-9H-purin-6-yl]oxy}-N-methyl-N-phenylpiperidine-1-carboxamide] | >10 |
| CCn1c(-c2cnc(C)nc2)nc2c(O[C@H]3CCN(C(=O)N4CC(OC)C4)C3)ncnc21 [Compound 5-13, 9-ethyl-6-({(3S)-1-[(3-methoxyazetidin-1-yl)carbonyl]pyrrolidin-3-yl}oxy)-8-(2-methylpyrimidin-5-yl)-9H-purine] | >10 |
| CCn1c(-c2cnc(C)nc2)nc2c(O[C@H]3CCN(C(=O)N4CC(F)(F)C4)C3)ncnc21 [Compound 5-14, 6-{[(3S)-1-[(3,3-difluoroazetidin-1-yl)carbonyl]pyrrolidin-3-yl}oxy)-9-ethyl-8-(2-methylpyrimidin-5-yl)-9H-purine] | >10 |
| CCn1c(-c2cnc(C)nc2)nc2c(O[C@H]3CCN(C(=O)N(C)c4ccccc4)C3)ncnc21 [Compound 5-17, (3S)-3-{[9-ethyl-8-(2-methylpyrimidin-5-yl)-9H-purin-6-yl]oxy}-N-methyl-N-phenylpyrrolidine-1-carboxamide] | >10 |
| CCn1c(-c2cnc(C)nc2)nc2c(O[C@H]3CCN(C(=O)N4CCC(CO)C4)C3)ncnc21 (stereo partly drawn) [Compound 5-18, (1-{[(3S)-3-{[9-ethyl-8-(2-methylpyrimidin-5-yl)-9H-purin-6-yl]oxy}pyrrolidin-1-yl]carbonyl}pyrrolidin-3-yl)methanol] | >10 |
| CCn1c(-c2cnc(C)nc2)nc2c(O[C@H]3CCN(C(=O)N4CCC(C)(C)C4)C3)ncnc21 [Compound 5-19, 6-({(3S)-1-[(3,3-dimethylpyrrolidin-1-yl)carbonyl]pyrrolidin-3-yl}oxy)-9-ethyl-8-(2-methylpyrimidin-5-yl)-9H-purine] | >10 |
